The test system of data set [1] is recombinant guanylate cyclase reporter cell line. Description: Effect on a recombinant guanylate cyclase reporter cell line. In kind it is cell-based. The following applies: MEC=minimum effective concentration. Here is the method: B-2. Effect on a Recombinant Guanylate Cyclase Reporter Cell Line
The cellular activity of the compounds according to the invention is determined using a recombinant guanylate cyclase reporter cell line, as described in F. Wunder et al., Anal. Biochem. 339, 104-112 (2005).

The subject of data set [2] is rabbit aorta rings. Description: Vasorelaxant action in vitro (phenylephrine-contracted rabbit aorta rings). As to conditions: Oryctolagus cuniculus; concentration reducing phenylephrine-induced contraction of rabbit aorta rings by 50%. Here is the method:
B-1. Vasorelaxant Action In Vitro
Rabbits are stunned by a blow to the neck and exsanguinated. The aorta is removed, freed from adhering tissue and divided into rings of a width of 1.5 mm. The rings are placed individually under an initial tension in 5 ml organ baths with Krebs-Henseleit solution which is at 37° C., is gassed with carbogen and has the following composition (in each case mM): sodium chloride 119; potassium chloride: 4.8; calcium chloride dihydrate: 1; magnesium sulfate heptahydrate: 1.4; potassium dihydrogenphosphate: 1.2; sodium bicarbonate: 25; glucose: 10. The contractile force is determined with Statham UC2 cells, amplified and digitalized using A/D transducers (DAS 1802 HC, Keithley Instruments Munich), and recorded in parallel on linear recorders. To obtain a contraction, phenylephrine is added to the bath cumulatively in increasing concentration. After several control cycles, the substance to be investigated is added in each further run in increasing dosage in each case, and the height of the contraction achieved is compared with the height of the contraction reached in the last preceding run. This is used to calculate the concentration needed to reduce the magnitude of the control value by 50% (IC50 value). The standard administration volume is 5 μl; the DMSO content in the bath solution corresponds to 0.1%.

The nature of data set [3]: Pharmacokinetic parameters following intravenous administration in rats. The following applies: intravenous administration of 0.3 mg/kg. In kind it is in vivo, male Wistar rats. Here is the method:
B-4. Determination of Pharmacokinetic Parameters Following Intravenous and Oral Administration:
The pharmacokinetic parameters of the substance are determined in male CD-1 mice, male Wistar rats and female beagles. The administration volume is 1 ml/kg for mice, 5 ml/kg for rats and 0.5 ml/kg for dogs. Intravenous administration is via a formulation of species-specific plasma/DMSO (99/1) in the case of mice and rats and via water/PEG400/ethanol (50/40/10) in the case of dogs. The taking of blood from rats is simplified by inserting a silicone catheter into the right Vena jugularis externa prior to substance administration. The surgical intervention takes place one day prior to the experiment with isofluran anesthesia and administration of an analgetic (carprofen 5 mg/kg s.c.). Substance administration is as i.v. bolus in the case of mice and via a 15-minute infusion in the case of rats and dogs. Removal of blood is after 0, 0.033, 0.083, 0.17, 0.5, 1, 2, 3, 4, 6, 7 and 24 hours in the case of mice and after 0, 0.083, 0.25, 0.28, 0.33, 0.42, 0.75, 1, 2, 3, 4, 6, 7 and 24 hours in the case of dogs and rats. […]
An internal standard (ZK 228859) is added to the unknown samples, calibration samples and QCs, and the protein is precipitated using excess acetonitrile. […] The substances are quantified by peak heights or areas using extracted ion chromatograms of specific MRM experiments.
The plasma concentration/time plots determined are used to calculate the pharmacokinetic parameters such as AUC, Cmax, t1/2 (half life) and CL (clearance) employing the validated pharmacokinetic calculation program KinEx (Vers. 2.5 and 3).
Since the substance quantification is performed in plasma, it is necessary to determine the blood/plasma distribution of the substance in order to be able to adjust the pharmacokinetic parameters correspondingly. […] After centrifugation at 1000 g, the plasma concentration is measured (see above) and determined by calculating the quotient of the cb/cp values.
Following intravenous administration of 0.3 mg/kg of example 1 in rats, the following values were recorded: […]

Take `CCOC(=O)N(C)c1c(N)nc(-n2nc(Cc3ccccc3F)c3ncc(F)cc32)nc1N` [Example 8, Ethyl {4,6-diamino-2-[6-fluoro-3-(2-fluorobenzyl)-1H-pyrazolo[4,3-b]pyridin-1-yl]pyrimidin-5-yl}methylcarbamate]: the MEC in data set [1] was 0.1 µM. Further, half-maximal inhibition in data set [2] (IC50) was put at 286 nM.
In the case of `COC(=O)Nc1c(N)nc(-n2nc(Cc3ccccc3F)c3ncc(F)cc32)nc1N` [Example 1, Methyl {4,6-diamino-2-[6-fluoro-3-(2-fluorobenzyl)-1H-pyrazolo[4,3-b]pyridin-1-yl]pyrimidin-5-yl}carbamate], the MEC in data set [1] is 0.3 µM. Besides, in data set [2], 1380 nM corresponded to half-maximal inhibition (IC50). The molecule also registered an AUCnorm in data set [3] of 4.62 kg·h/L. Further, the clearance in data set [3] (male, Wistar, rat, blood, read-out: CL blood (converted)) is 5.5 mL/min/kg. Further, in data set [3] (male, Wistar, rat, plasma), the half-life (in general, the time needed for the level to fall by half in the phase considered) is 1.38 h.
`COC(=O)N(CC(F)(F)F)c1c(N)nc(-n2nc(Cc3ccccc3F)c3ncc(F)cc32)nc1N` [Example 13, Methyl {4,6-diamino-2-[6-fluoro-3-(2-fluorobenzyl)-1H-pyrazolo[4,3-b]pyridin-1-yl]pyrimidin-5-yl}(2,2,2-trifluoroethyl)carbamate]: the MEC in data set [1] came out at 0.1 µM. For the same molecule, half-maximal inhibition in data set [2] (IC50) required 178 nM.
Turning to `COC(=O)N(C)c1c(N)nc(-n2nc(Cc3ccccc3F)c3ncc(F)cc32)nc1N` [Example 7, Methyl {4,6-diamino-2-[6-fluoro-3-(2-fluorobenzyl)-1H-pyrazolo[4,3-b]pyridin-1-yl]pyrimidin-5-yl}methylcarbamate], the MEC in data set [1] was 0.1 µM. For the same molecule, half-maximal inhibition in data set [2] (IC50) was put at 194 nM.
The like results for `CCOC(=O)Nc1c(N)nc(-n2nc(Cc3ccccc3F)c3ncc(F)cc32)nc1N` [Example 2, Ethyl {4,6-diamino-2-[6-fluoro-3-(2-fluorobenzyl)-1H-pyrazolo[4,3-b]pyridin-1-yl]pyrimidin-5-yl}carbamate] were, in that order, 0.3 µM and 763 nM.

The values are drawn from US9309239B2, “Substituted 6-fluoro-1H-pyrazolo[4,3-b]pyridines and use thereof” (BAYER INTELLECTUAL PROPERTY GMBH, priority 2010, dated 2016).
